Assay results: the supplement of paper PMC10307832

Compound: NC(=O)[C@@H](CCC(F)(F)F)N(Cc1ccc(-c2ncon2)cc1F)S(=O)(=O)c1ccc(Cl)cc1 [Avagacestat] + CC(=O)Nc1cccc(-n2c(=O)n(C3CC3)c(=O)c3c(Nc4ccc(I)cc4F)n(C)c(=O)c(C)c32)c1 [Trametinib] (partner 0.02 µM)
Experiment: relative viability (nuclei count vs DMSO), 5 days (fraction); higher = more cells survive
Procedure, shortened: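 One day after seeding in 1536-well plates, lung cancer cell lines were dosed by pin tool. Dosing was either single-drug or a fixed anchor-drug dose plus five library-drug doses (not always all listed) in √10 steps. After 5 days, nuclei were stained in one fix-and-stain step and counted on 4× images, and relative viability is the nuclei count of treated wells over that of vehicle wells, given as the median of duplicate plates.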

| Cell Line | relative viability (first compound 0.08 µM) | relative viability (first compound 0.253 µM) | relative viability (first compound 0.8 µM) | relative viability (first compound 2.53 µM) | relative viability (first compound 8 µM) |
| --- | --- | --- | --- | --- | --- |
| 201T | 0.732 | 0.749 | 0.761 | 0.691 | 0.625 |
| A-427 | 0.84 | 0.898 | 0.71 | 0.694 | 0.742 |
| BEN | 1.1 | 1.18 | 1.05 | 0.917 | 1.13 |
| CAL-12T | 0.407 | 0.417 | 0.418 | 0.413 | 0.443 |
| COR-L23 | 0.765 | 0.741 | 0.818 | 0.632 | 0.414 |
| COR-L 105 | 0.401 | 0.45 | 0.457 | 0.42 | 0.474 |
| ChaGo-K-1 | 0.95 | 0.933 | 0.897 | 0.817 | 0.797 |
| EKVX | 0.468 | 0.39 | 0.348 | 0.303 | 0.298 |
| EMC-BAC-2 | 0.986 | 1.2 | 1.05 | 0.955 | 1.02 |
| EPLC-272H | 0.309 | 0.295 | 0.316 | 0.333 | 0.248 |
| H3255 | 0.673 | 0.644 | 0.777 | 0.569 | 0.589 |
| HARA | 0.704 | 0.764 | 0.757 | 0.536 | 0.647 |
| HCC-15 | 0.395 | 0.44 | 0.391 | 0.394 | 0.374 |
| HCC-44 | 1.05 | 1.02 | 1.05 | 0.98 | 1.03 |
| HCC-78 | 0.878 | 0.933 | 0.888 | 0.789 | 0.726 |
| HCC-366 | 0.446 | 0.547 | 0.346 | 0.297 | 0.27 |
| HCC-827 | 0.602 | 0.509 | 0.543 | 0.531 | 0.507 |
| HOP-62 | 0.381 | 0.372 | 0.4 | 0.323 | 0.304 |
| LC-2-ad | 0.99 | 0.965 | 0.962 | 0.911 | 0.856 |
| LCLC-97TM1 | 0.241 | 0.251 | 0.266 | 0.174 | 0.22 |
| LCLC-103H | 0.721 | 0.726 | 0.772 | 0.567 | 0.61 |
| LK-2 | 1.02 | 0.917 | 0.651 |  | 0.747 |
| LOU-NH91 | 0.877 | 0.801 | 0.839 | 0.765 | 0.765 |
| LU99A | 0.515 | 0.485 | 0.555 | 0.485 | 0.534 |

| Cell Line | relative viability (first compound 0.08 µM) | relative viability (first compound 0.253 µM) | relative viability (first compound 0.8 µM) | relative viability (first compound 2.53 µM) | relative viability (first compound 8 µM) |
| --- | --- | --- | --- | --- | --- |
| LXF-289 | 0.725 | 0.656 | 0.767 | 0.659 | 0.636 |
| NCI-H23 | 0.43 | 0.261 | 0.392 | 0.414 | 0.4 |
| NCI-H322M | 0.48 | 0.457 | 0.343 | 0.465 | 0.443 |
| NCI-H358 | 0.14 | 0.114 | 0.129 | 0.127 | 0.119 |
| NCI-H441 | 0.52 | 0.462 | 0.449 | 0.515 | 0.411 |
| NCI-H460 | 0.223 | 0.143 | 0.13 | 0.112 | 0.1 |
| NCI-H520 | 0.814 | 0.792 | 0.611 | 0.497 | 0.616 |
| NCI-H596 | 0.741 | 0.783 | 0.794 | 0.817 | 0.7 |
| NCI-H647 | 0.475 | 0.502 | 0.463 | 0.396 | 0.384 |
| NCI-H650 | 1.02 | 1.06 | 0.988 | 1 | 1.06 |
| NCI-H661 | 0.589 | 0.632 | 0.604 | 0.548 | 0.521 |
| NCI-H727 | 0.443 | 0.452 | 0.387 | 0.434 | 0.499 |
| NCI-H838 | 0.534 | 0.607 | 0.559 | 0.442 | 0.495 |
| NCI-H1355 | 0.449 | 0.393 | 0.447 | 0.386 | 0.366 |
| NCI-H1395 | 1.02 | 1.05 | 0.926 | 0.803 | 0.949 |
| NCI-H1437 | 0.518 | 0.668 | 0.575 | 0.398 | 0.436 |
| NCI-H1648 | 0.443 | 0.426 | 0.36 | 0.318 | 0.32 |
| NCI-H1650 | 0.696 | 0.614 | 0.73 | 0.678 | 0.588 |
| NCI-H1651 | 0.884 | 0.93 | 0.838 | 0.842 | 0.813 |
| NCI-H1666 | 1.29 | 1.04 | 1.02 | 0.991 | 0.748 |
| NCI-H1734 | 0.776 | 0.796 | 0.682 | 0.71 | 0.633 |
| NCI-H1755 | 0.837 | 0.884 | 0.8 | 0.777 | 0.729 |
| NCI-H1792 | 0.534 | 0.641 | 0.491 | 0.373 | 0.439 |
| NCI-H1793 | 0.52 | 0.536 | 0.459 | 0.519 | 0.479 |

| Cell Line | relative viability (first compound 0.08 µM) | relative viability (first compound 0.253 µM) | relative viability (first compound 0.8 µM) | relative viability (first compound 2.53 µM) | relative viability (first compound 8 µM) |
| --- | --- | --- | --- | --- | --- |
| NCI-H1915 | 0.29 | 0.305 | 0.254 | 0.3 | 0.252 |
| NCI-H1944 | 0.426 | 0.436 | 0.373 | 0.394 | 0.382 |
| NCI-H1975 | 0.305 | 0.361 | 0.429 | 0.33 | 0.361 |
| NCI-H1993 | 0.576 | 0.316 | 0.629 | 0.504 | 0.577 |
| NCI-H2009 | 0.267 | 0.245 | 0.283 | 0.252 | 0.251 |
| NCI-H2023 | 0.681 | 0.59 | 0.569 | 0.522 | 0.449 |
| NCI-H2085 | 0.608 | 0.604 | 0.637 | 0.559 | 0.644 |
| NCI-H2087 | 0.211 | 0.223 | 0.196 | 0.183 | 0.198 |
| NCI-H2126 | 0.612 | 0.553 | 0.545 | 0.524 | 0.512 |
| NCI-H2170 | 1 | 1.17 | 1 | 0.867 | 0.881 |
| NCI-H2228 | 0.591 | 0.535 | 0.753 | 0.59 | 0.354 |
| NCI-H2342 | 0.725 | 0.771 | 0.784 | 0.766 | 0.693 |
| NCI-H2347 | 0.283 | 0.324 | 0.388 | 0.327 | 0.283 |
| NCI-H2405 | 0.687 | 0.69 | 0.548 | 0.508 | 0.554 |
| NCI-H3122 | 0.298 | 0.233 | 0.197 | 0.23 | 0.219 |
| PC-3 [JPC-3] | 0.763 | 0.754 | 0.816 | 0.742 | 0.714 |
| PC-14 | 1.14 | 1.1 | 0.933 | 0.736 | 0.649 |
| RERF-LC-KJ | 0.917 | 0.853 | 0.89 | 0.81 | 0.84 |
| SK-LU-1 | 0.524 | 0.457 | 0.516 | 0.467 | 0.382 |
| SK-MES-1 | 0.564 | 0.567 | 0.522 | 0.515 | 0.494 |
| SW 1573 | 0.75 | 0.679 | 0.519 | 0.629 | 0.462 |
| UMC-11 | 0.752 | 0.686 | 0.799 | 0.789 | 0.675 |
